Experimental data from ChEMBL document CHEMBL3632526, “Novel, potent, selective and cellular active ABC type PTP1B inhibitors containing (methanesulfonyl-phenyl-amino)-acetic acid methyl ester phosphotyrosine mimetic” (Bioorg Med Chem, 2015).
Values belong to the molecule of their own block, whether it stands above or below them. Active and inactive are the calls of the source. No cut-off for these calls is given here.

Legend:
[1] = target: Receptor-type tyrosine-protein phosphatase F (Homo sapiens) (UniProt P10586); test: Inhibition of LAR (unknown origin) assessed as hydrolysis of pNPP to pNP at 25 uM after 30 mins
[2] = target: T1, Tyrosine-protein phosphatase non-receptor type 11 (Homo sapiens) (UniProt Q06124); test: Inhibition of SHP2 (unknown origin) assessed as hydrolysis of pNPP to pNP at 25 uM after 30 mins
T1 sequence (whole entry): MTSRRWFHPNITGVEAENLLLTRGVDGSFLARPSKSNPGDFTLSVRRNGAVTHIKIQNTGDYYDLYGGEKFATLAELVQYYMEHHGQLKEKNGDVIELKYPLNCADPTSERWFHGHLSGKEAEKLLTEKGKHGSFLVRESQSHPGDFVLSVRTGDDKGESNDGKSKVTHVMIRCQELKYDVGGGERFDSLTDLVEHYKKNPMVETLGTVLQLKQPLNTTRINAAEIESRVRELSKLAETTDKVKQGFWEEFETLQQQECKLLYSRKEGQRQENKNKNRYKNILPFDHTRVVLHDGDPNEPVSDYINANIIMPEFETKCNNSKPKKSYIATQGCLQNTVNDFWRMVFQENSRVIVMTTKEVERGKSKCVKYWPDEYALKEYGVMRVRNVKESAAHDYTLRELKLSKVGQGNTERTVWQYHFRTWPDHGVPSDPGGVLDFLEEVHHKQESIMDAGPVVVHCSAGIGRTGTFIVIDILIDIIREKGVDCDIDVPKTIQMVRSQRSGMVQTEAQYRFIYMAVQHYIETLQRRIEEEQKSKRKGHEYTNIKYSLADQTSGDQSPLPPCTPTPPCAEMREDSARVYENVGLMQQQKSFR

[3] = target: T2, Tyrosine-protein phosphatase non-receptor type 2 (Homo sapiens) (UniProt P17706); test: Inhibition of TCPTP (unknown origin) assessed as hydrolysis of pNPP to pNP at 25 uM after 30 mins
T2 sequence (whole entry): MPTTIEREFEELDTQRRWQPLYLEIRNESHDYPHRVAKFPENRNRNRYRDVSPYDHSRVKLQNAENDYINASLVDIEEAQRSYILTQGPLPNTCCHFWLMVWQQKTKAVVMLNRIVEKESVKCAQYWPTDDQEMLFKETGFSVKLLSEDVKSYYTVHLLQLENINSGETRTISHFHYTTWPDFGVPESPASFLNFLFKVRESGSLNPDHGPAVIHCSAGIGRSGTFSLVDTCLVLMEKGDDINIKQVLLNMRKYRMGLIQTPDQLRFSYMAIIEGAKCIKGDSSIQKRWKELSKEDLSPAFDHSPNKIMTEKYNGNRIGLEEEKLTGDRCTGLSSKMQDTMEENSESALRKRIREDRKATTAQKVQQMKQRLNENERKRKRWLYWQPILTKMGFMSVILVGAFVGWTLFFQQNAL

[4] = target: T3, Tyrosine-protein phosphatase non-receptor type 1 (Homo sapiens, UniProt P18031); test: Inhibition of recombinant PTP1B (unknown origin) assessed as hydrolysis of pNPP to pNP after 30 mins
T3 sequence (P18031 whole entry): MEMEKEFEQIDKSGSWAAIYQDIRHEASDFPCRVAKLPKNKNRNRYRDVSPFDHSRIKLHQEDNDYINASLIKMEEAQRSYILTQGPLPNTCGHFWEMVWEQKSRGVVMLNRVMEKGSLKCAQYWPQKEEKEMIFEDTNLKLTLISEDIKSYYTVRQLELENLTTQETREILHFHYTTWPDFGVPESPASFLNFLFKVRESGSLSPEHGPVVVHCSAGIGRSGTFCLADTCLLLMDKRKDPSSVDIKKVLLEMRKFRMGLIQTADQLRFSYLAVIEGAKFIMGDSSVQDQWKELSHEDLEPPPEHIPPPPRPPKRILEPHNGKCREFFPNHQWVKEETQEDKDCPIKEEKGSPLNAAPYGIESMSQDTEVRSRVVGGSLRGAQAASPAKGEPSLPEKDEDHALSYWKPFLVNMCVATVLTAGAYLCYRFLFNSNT

[5] = target: T4, Tyrosine-protein phosphatase non-receptor type 6 (Homo sapiens, UniProt P29350); test: Inhibition of SHP1 (unknown origin) assessed as hydrolysis of pNPP to pNP at 25 uM after 30 mins
[6] = target: T5, Tyrosine-protein phosphatase non-receptor type 1 (Homo sapiens) (UniProt P18031); test: Inhibition of recombinant PTP1B (unknown origin) assessed as hydrolysis of pNPP to pNP at 25 uM after 30 mins
T5 sequence (whole entry): T3 sequence (P18031 whole entry)

[7] = target: T4, Tyrosine-protein phosphatase non-receptor type 6; test: Inhibition of SHP1 (unknown origin) assessed as hydrolysis of pNPP to pNP after 30 mins
[8] = target: T6, Tyrosine-protein phosphatase non-receptor type 2 (Homo sapiens, UniProt P17706); test: Inhibition of TCPTP (unknown origin) assessed as hydrolysis of pNPP to pNP after 30 mins
T6 sequence (P17706 whole entry): T2 sequence (whole entry)

[9] = tested on: L6; test: Increase in insulin stimulated glucose uptake in differentiated rat L6 myotube at 5 uM preincubated for 4 hrs followed by insulin stimulation for 10 mins and addition of 2-NBDG measured after 30 mins by 2-NBDG-based fluorescence analysis; format: functional
[10] = organism: Homo sapiens; test: Selectivity ratio of IC50 for SHP1 (unknown origin) to IC50 for PTP1B (unknown origin)
[11] = tested on: L6; test: Increase in insulin stimulated glucose uptake in differentiated rat L6 myotube at 10 uM preincubated for 4 hrs followed by insulin stimulation for 10 mins and addition of 2-NBDG measured after 30 mins by 2-NBDG-based fluorescence analysis; format: functional
[12] = tested on: CHO; test: Inhibition of PTP1B in CHO cells transfected with human IRbeta expressing plasmid assessed as increase in phosphorylation level of IRbeta at 15 uM and 30 uM incubated for 4 hrs prior to insulin stimulation for 10 mins by SDS-PAGE analysis; format: cell-based; details: Cricetulus griseus
[13] = tested on: 3T3-L1; test: Inhibition of PTP1B in IRbeta expressing mouse 3T3L1 cells assessed as increase in phosphorylation level of IRbeta at 15 uM and 30 uM prior to insulin stimulation by SDS-PAGE analysis; format: cell-based
[14] = organism: Homo sapiens; test: Increase in insulin-stimulated glucose uptake in differentiated human skeletal muscle cells preincubated for 4 hrs followed by insulin stimulation for 10 mins and addition of 2-NBDG measured after 30 mins by 2-NBDG-based fluorescence analysis; format: functional
[15] = organism: Homo sapiens; test: Selectivity ratio of IC50 for TCPTP (unknown origin) to IC50 for PTP1B (unknown origin)
[16] = target: T7, Tyrosine-protein phosphatase non-receptor type 11 (Homo sapiens, UniProt Q06124); test: Inhibition of SHP2 (unknown origin) assessed as hydrolysis of pNPP to pNP after 30 mins
T7 sequence (Q06124 whole entry): T1 sequence (whole entry)

Sequence of Receptor-type tyrosine-protein phosphatase F (Homo sapiens) (P10586 whole entry): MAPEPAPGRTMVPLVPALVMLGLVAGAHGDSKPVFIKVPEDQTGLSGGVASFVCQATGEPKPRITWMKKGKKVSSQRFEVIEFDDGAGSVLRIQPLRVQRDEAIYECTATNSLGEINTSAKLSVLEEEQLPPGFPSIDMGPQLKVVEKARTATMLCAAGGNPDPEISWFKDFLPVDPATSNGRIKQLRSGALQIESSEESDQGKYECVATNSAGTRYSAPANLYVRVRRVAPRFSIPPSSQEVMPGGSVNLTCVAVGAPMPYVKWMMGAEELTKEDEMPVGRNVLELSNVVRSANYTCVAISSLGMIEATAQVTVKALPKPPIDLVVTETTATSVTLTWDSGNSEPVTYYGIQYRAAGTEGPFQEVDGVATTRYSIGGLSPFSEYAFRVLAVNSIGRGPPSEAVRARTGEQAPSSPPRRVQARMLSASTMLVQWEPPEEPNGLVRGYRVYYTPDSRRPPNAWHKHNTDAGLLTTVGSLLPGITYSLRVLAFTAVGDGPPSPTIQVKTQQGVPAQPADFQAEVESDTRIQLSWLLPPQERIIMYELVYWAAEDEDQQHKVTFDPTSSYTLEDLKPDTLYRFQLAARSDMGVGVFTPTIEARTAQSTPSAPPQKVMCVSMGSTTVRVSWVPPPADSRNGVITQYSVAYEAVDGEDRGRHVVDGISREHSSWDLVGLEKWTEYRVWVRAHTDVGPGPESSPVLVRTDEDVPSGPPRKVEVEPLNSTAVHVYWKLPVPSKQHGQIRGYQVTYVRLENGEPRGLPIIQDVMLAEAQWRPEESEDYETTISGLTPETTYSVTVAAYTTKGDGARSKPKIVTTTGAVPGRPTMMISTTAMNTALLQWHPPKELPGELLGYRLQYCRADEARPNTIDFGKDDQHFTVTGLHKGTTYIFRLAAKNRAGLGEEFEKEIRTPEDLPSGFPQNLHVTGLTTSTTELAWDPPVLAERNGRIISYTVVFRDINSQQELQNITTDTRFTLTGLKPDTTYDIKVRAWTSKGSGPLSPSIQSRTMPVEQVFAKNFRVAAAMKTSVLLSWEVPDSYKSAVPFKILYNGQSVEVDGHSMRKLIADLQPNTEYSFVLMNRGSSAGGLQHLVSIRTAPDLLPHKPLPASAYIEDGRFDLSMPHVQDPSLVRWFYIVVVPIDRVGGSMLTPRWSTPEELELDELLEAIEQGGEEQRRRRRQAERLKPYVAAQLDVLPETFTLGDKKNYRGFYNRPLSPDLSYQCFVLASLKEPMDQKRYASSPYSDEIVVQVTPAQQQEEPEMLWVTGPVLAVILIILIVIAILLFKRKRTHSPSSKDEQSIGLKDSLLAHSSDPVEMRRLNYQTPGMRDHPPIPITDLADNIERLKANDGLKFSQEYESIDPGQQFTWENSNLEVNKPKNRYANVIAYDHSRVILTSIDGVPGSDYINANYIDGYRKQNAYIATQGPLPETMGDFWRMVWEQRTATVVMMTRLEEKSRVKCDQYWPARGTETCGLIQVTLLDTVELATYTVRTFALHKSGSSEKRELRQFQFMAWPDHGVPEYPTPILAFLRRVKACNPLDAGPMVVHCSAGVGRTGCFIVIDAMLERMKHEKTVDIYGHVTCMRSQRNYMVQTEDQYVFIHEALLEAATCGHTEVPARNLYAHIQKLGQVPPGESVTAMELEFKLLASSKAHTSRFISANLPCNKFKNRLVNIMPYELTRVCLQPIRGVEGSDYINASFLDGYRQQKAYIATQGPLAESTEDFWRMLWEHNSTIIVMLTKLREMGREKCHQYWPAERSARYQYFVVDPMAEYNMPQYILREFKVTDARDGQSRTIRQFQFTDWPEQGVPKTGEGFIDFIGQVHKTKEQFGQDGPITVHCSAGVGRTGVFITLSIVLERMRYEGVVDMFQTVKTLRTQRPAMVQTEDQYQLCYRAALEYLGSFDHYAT
T4 sequence (P29350 whole entry): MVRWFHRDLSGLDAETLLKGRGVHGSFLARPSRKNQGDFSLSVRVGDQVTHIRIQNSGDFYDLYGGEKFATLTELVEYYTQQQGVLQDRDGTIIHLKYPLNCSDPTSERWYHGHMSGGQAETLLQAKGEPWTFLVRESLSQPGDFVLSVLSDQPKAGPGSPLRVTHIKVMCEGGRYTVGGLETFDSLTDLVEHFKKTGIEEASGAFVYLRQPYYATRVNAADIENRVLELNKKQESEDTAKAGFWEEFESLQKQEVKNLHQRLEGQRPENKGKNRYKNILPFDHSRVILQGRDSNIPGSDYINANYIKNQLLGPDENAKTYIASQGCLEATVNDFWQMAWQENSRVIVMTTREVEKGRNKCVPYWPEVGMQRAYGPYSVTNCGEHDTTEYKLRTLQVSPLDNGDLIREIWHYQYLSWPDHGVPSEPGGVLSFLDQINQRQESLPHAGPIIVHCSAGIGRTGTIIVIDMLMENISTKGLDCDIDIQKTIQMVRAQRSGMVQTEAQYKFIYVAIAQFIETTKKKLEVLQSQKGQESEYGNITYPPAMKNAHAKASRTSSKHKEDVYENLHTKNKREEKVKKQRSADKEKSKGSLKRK

SMILES: COC(=O)CN(c1ccc(CN(c2ccc(CN(Cc3ccccc3)S(C)(=O)=O)cc2)S(=O)(=O)Cc2ccccc2)cc1)S(C)(=O)=O
inhibition [6]: < 50%

SMILES: COC(=O)CN(c1ccc(CN(c2ccc(N(Cc3cccc(Cl)c3)S(C)(=O)=O)cc2)S(=O)(=O)Cc2ccccc2)cc1)S(C)(=O)=O
inhibition [6]: < 50%

SMILES: CCCCOc1ccc(S(=O)(=O)N(Cc2ccc(N(CC(=O)OC)S(C)(=O)=O)cc2)c2ccc(NS(=O)(=O)Cc3ccccc3)cc2)cc1
IC50 [4]: 1710 nM

SMILES: CCCOc1ccc(S(=O)(=O)N(Cc2ccc(N(CC(=O)OC)S(C)(=O)=O)cc2)c2ccc(CN(Cc3ccccc3)S(C)(=O)=O)cc2)cc1
IC50 [4]: 902 nM

SMILES: COC(=O)CN(c1ccc(CN(c2ccc(CN(Cc3ccccc3)S(C)(=O)=O)cc2)S(=O)(=O)c2ccccc2)cc1)S(C)(=O)=O
IC50 [4]: 16100 nM

SMILES: CCS(=O)(=O)N(CC(=O)OC)c1ccc(CN(c2ccc(CN(Cc3cccc(Cl)c3)S(C)(=O)=O)cc2)S(=O)(=O)Cc2ccccc2)cc1
inhibition [6]: < 50%

SMILES: COC(=O)CN(c1ccc(CN(c2ccc(CN(Cc3ccc(C)cc3)S(C)(=O)=O)cc2)S(=O)(=O)Cc2ccccc2)cc1)S(C)(=O)=O
IC50 [4]: 20300 nM

Further molecules by falling IC50 [4], results first:

IC50 [4]: 896 nM
SMILES: CCCCOc1ccc(S(=O)(=O)N(Cc2ccc(N(CC(=O)OC)S(C)(=O)=O)cc2)c2ccc(CN(Cc3ccccc3)S(C)(=O)=O)cc2)cc1

inhibition [1]: < 50%
Ratio IC50 [10]: 20
IC50 [16]: 11600 nM
IC50 [7]: 9610 nM
inhibition [3]: < 50%
IC50 [4]: 492 nM
SMILES: COC(=O)CN(c1ccc(CN(c2ccc(N(Cc3ccccc3)S(C)(=O)=O)cc2)S(=O)(=O)Cc2ccccc2)cc1)S(C)(=O)=O

inhibition [1]: < 50%
IC50 [7]: 11400 nM
inhibition [2]: < 50%
IC50 [4]: 470 nM
IC50 [8]: 1920 nM
SMILES: CCOc1ccc(S(=O)(=O)Nc2ccc(N(Cc3ccc(N(CC(=O)OC)S(=O)(=O)CC)cc3)S(=O)(=O)Cc3ccccc3)cc2)cc1

inhibition [1]: < 50%
inhibition [2]: < 50%
inhibition [3]: < 50%
IC50 [4]: 346 nM
inhibition [5]: < 50%
SMILES: COC(=O)CN(c1ccc(CN(c2ccc(CN(Cc3ccccc3)S(C)(=O)=O)cc2)S(=O)(=O)c2ccc(OC)cc2)cc1)S(C)(=O)=O

inhibition [1]: < 50%
Ratio IC50 [10]: 10
IC50 [7]: 2310 nM
inhibition [2]: < 50%
IC50 [4]: 222 nM
IC50 [8]: 1860 nM
Ratio IC50 [15]: 8
SMILES: CCOc1ccc(S(=O)(=O)N(Cc2ccc(N(CC(=O)OC)S(C)(=O)=O)cc2)c2ccc(CN(Cc3ccccc3)S(C)(=O)=O)cc2)cc1
Activity [9]: 23.3%
Activity [11]: 29.3%
inhibition [12]: Active
inhibition [13]: Active
Activity [14]: Dose-dependent effect
